Laboratory results taken from US6384225B1, “Intermediates in the preparation of substituted chroman derivatives” (AstraZeneca AB, priority 1997, dated 2002).

melting point | Compound
259 °C (dec.) | CN1CCN(c2ccc(C(N)=O)c3c2C[C@H](NC(=O)c2ccc(C(=O)c4ccccc4)cc2)CO3)CC1 [Example 14, (S)-N-[8-Carbamoyl-5-(4-methylpiperazin-1-yl)-3,4-dihydro-2H-1-benzopyran-3-yl]-4-benzoylbenzamide]
191 to 192 °C | Cc1ccc(C(=O)N[C@@H]2COc3c(C)ccc(N4CCN(C)CC4)c3C2)cc1 [Example 11, (S)-N-[8-Methyl-5-(4-methylpiperazin-1-yl)-3,4-dihydro-2H-1-benzopyran-3-yl]-4-methylbenzamide]
202 to 204 °C | COc1ccc(N2CCN(C)CC2)c2c1OCC(C(=O)Nc1ccc(N3CCOCC3)cc1)C2 (stereo not drawn) [Example 20, N-(4-Morpholinophenyl)-8-methoxy-5-(4-methylpiperazin-1-yl)-3,4-dihydro-2H-1-benzopyran-3-carboxamide]
